Measurements published in USRE49742E1, “Drug delivery system for administration of poorly water soluble pharmaceutically active substances” (Vivesto AB, priority 2007, dated 2023).

How the values were obtained:
[1] = Solubility of calcium salt in water (concentration in filtered solution, UV method); type: physicochemical; conditions: concentration in solution filtered through 0.2 μm filter
Procedure: Aqueous solutions of a sodium salt of the methyl ester of N-all-trans-retinoyl cysteic acid (5 ml, 15 mg/ml) and calcium chloride (3 ml, 30 mg/ml) were mixed in a 10 ml test tube. During the mixing a fine precipitation emerged. The precipitate was separated by centrifugation of the test tube at 3000 rpm for 10 min. The supernatant was removed and the precipitate was shaken with 8 ml of water followed by a new centrifugation. After three additional washing procedures as described above the supernatant was filtered through a 0.2 μm filter in order to remove possible large aggregates of the product. […] The reaction is illustrated by the below general scheme involving chlorides of any polyvalent metal ions, not only calcium ions.

[2] = cited from earlier work

solubility [1]	SMILES	Bioavailability at oral administration [2]
200 µg/mL	COC(=O)C(CS(=O)(=O)[O-])NC(=O)/C=C(C)/C=C/C=C(C)/C=C/C1=C(C)CCCC1(C)C.COC(=O)C(CS(=O)(=O)[O-])NC(=O)/C=C(C)/C=C/C=C(C)/C=C/C1=C(C)CCCC1(C)C.[Ca+2] (stereo not drawn) [calcium salt of the methyl ester of N-all-trans-retinoyl cysteic acid]	
	CO[C@H]1C[C@@H]2CC[C@@H](C)[C@@](O)(O2)C(=O)C(=O)N2CCCC[C@H]2C(=O)O[C@H]([C@H](C)C[C@@H]2CC[C@@H](OCCO)[C@H](OC)C2)CC(=O)[C@H](C)/C=C(\C)[C@@H](O)[C@@H](OC)C(=O)[C@H](C)C[C@H](C)/C=C/C=C/C=C/1C [everolimus]	about 20%
	CO[C@H]1C[C@@H]2CC[C@@H](C)[C@@](O)(O2)C(=O)C(=O)N2CCCC[C@H]2C(=O)O[C@H]([C@H](C)C[C@@H]2CC[C@@H](O)[C@H](OC)C2)CC(=O)[C@H](C)/C=C(\C)[C@@H](O)[C@@H](OC)C(=O)[C@H](C)C[C@H](C)/C=C/C=C/C=C/1C [sirolimus]	about 20%
	C=CC[C@@H]1/C=C(\C)C[C@H](C)C[C@H](OC)[C@H]2O[C@@](O)(C(=O)C(=O)N3CCCC[C@H]3C(=O)O[C@H](/C(C)=C/[C@@H]3CC[C@@H](O)[C@H](OC)C3)[C@H](C)[C@@H](O)CC1=O)[C@H](C)C[C@@H]2OC [tacrolimus]	about 20%
